Like-named read-outs stand apart in the source and are kept apart here.
Tests used:
[1] = system: INS-1E cells; type: cell-based, rat;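 on 5mMGluc INS1E SecretionMod IC50/EC50: secreted insulin quantified by homogeneous immunoassay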
[2] = system: INS-1E cells; assay: cells; type: cell-based, rat
[3] = biological target: T1, hGSK3b (Homo sapiens, UniProt P49841); assay: Cerep LANCE kinase assay hGSK3b (S1 assay 34); type: biochemical
T1 construct: purchased Cerep (LANCE kinase assay platform, contract assay)

[4] = biological target: T2, hp70S6K1 (RPS6KB1) (Homo sapiens, UniProt P23443); assay: Cerep LANCE kinase assay hp70S6K1 (S1 assay 31); type: biochemical
T2 construct: purchased Cerep (LANCE kinase assay platform, contract assay)

[5] = system: alkaline phosphatase (ALP) activity in C2C12 cells; type: cell-based; conditions: concentration response
[6] = system: SW480; assay: cells; type: cell-based
[7] = system: nuclear β-catenin in C2C12 cells; assay: cells; type: cell-based; conditions: concentration response
[8] = system: endothelial tube formation in co-cultures of ECFCs and ADSCs treated with VEGF; assay: cells; type: cell-based, human
[9] = system: NCI-H716 cells; assay: cells; type: cell-based, Human; conditions: concentration response
[10] = system: RKO; assay: cells; type: cell-based
[11] = system: HCT116; assay: cells; type: cell-based
[12] = biological target: T3, hKDR (Homo sapiens, UniProt P35968); assay: Cerep LANCE kinase assay hKDR (S1 assay 32); type: biochemical
T3 construct: purchased Cerep (LANCE kinase assay platform, contract assay)

[13] = system: HeLa cells; assay: cells; type: cell-based
[14] = system: STC-1 cell line; type: cell-based, mouse; conditions: concentration response
[15] = biological target: T4, hJAK2 (Homo sapiens, UniProt O60674); assay: Cerep LANCE kinase assay hJAK2 (S1 assay 33); type: biochemical
T4 construct: purchased Cerep (LANCE kinase assay platform, contract assay)

[16] = system: SNU-C1; assay: cells; type: cell-based
[17] = system: ECFC/ADSC co-culture cell nuclei number
[18] = system: DLD-1; assay: cells; type: cell-based
[19] = biological target: T5, hFLT3 (Homo sapiens, UniProt P36888); assay: Cerep LANCE kinase assay hFLT3 (S1 assay 35); type: biochemical
T5 construct: purchased Cerep (LANCE kinase assay platform, contract assay)

[20] = system: HCT116 cells treated with a GSK3β inhibitor; assay: cells; type: cell-based
[21] = system: HT-29; assay: cells; type: cell-based
[22] = system: Colo320; assay: cells; type: cell-based; conditions: basal

T4 sequence (O60674 whole entry): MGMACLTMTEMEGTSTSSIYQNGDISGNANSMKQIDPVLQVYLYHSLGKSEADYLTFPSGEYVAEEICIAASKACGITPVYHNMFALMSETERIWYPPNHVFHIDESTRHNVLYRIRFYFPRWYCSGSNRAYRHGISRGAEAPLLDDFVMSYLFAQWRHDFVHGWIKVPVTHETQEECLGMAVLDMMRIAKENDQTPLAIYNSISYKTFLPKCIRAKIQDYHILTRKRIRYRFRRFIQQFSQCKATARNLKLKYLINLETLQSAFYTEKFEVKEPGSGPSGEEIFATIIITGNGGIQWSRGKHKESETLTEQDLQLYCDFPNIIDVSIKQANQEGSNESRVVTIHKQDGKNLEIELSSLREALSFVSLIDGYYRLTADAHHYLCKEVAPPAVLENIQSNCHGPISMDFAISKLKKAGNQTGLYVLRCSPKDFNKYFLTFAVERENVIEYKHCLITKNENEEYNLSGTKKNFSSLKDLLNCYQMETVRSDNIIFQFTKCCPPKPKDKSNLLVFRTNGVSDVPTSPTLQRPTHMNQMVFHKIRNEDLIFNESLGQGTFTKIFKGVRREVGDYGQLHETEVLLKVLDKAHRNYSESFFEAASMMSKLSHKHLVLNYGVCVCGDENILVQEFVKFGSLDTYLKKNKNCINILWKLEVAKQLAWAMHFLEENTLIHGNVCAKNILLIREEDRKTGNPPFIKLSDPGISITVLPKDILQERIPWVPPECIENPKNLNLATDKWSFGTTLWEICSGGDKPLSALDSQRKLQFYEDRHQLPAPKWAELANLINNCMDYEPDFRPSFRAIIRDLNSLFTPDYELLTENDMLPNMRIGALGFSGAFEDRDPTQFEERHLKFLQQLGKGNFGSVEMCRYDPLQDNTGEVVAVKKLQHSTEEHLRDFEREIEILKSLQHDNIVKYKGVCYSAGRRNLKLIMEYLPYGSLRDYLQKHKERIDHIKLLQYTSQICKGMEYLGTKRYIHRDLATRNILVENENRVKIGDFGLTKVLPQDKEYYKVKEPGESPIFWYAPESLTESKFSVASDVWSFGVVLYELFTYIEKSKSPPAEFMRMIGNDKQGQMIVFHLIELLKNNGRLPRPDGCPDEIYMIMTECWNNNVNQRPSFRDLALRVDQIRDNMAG
T3 sequence (P35968 20-1356): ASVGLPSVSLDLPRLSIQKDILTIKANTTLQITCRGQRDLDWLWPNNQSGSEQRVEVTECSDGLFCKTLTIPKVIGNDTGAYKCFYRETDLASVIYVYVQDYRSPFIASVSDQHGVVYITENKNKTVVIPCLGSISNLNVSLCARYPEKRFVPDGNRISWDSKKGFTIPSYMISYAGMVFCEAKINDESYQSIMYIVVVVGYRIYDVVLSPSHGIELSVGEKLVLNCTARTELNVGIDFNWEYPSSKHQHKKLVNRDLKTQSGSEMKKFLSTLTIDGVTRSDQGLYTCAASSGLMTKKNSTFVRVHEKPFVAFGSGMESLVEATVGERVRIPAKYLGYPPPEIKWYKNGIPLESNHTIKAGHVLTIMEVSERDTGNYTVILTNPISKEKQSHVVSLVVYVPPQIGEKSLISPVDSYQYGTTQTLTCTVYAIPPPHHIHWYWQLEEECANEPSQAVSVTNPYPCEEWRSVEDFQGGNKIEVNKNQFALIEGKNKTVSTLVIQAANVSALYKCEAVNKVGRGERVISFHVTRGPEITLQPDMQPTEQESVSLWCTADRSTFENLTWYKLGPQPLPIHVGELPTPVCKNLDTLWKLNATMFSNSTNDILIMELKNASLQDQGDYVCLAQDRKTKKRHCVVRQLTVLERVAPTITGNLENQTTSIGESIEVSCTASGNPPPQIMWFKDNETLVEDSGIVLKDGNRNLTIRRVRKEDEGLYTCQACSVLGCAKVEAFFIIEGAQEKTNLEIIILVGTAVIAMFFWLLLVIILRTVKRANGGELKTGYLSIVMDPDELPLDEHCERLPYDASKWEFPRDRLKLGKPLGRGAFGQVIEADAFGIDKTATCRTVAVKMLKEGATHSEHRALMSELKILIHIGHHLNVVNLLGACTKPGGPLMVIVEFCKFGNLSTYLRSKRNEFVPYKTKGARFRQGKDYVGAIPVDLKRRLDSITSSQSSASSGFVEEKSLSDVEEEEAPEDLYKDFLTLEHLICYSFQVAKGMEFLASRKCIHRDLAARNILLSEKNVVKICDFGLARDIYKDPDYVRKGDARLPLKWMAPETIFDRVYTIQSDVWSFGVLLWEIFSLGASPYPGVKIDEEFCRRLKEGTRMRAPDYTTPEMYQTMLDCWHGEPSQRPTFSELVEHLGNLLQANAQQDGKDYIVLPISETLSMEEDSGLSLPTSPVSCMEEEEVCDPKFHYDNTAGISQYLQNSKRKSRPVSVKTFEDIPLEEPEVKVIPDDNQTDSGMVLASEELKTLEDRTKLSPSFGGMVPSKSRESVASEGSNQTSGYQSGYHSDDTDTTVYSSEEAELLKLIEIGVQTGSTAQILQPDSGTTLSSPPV
T5 sequence (P36888 27-993): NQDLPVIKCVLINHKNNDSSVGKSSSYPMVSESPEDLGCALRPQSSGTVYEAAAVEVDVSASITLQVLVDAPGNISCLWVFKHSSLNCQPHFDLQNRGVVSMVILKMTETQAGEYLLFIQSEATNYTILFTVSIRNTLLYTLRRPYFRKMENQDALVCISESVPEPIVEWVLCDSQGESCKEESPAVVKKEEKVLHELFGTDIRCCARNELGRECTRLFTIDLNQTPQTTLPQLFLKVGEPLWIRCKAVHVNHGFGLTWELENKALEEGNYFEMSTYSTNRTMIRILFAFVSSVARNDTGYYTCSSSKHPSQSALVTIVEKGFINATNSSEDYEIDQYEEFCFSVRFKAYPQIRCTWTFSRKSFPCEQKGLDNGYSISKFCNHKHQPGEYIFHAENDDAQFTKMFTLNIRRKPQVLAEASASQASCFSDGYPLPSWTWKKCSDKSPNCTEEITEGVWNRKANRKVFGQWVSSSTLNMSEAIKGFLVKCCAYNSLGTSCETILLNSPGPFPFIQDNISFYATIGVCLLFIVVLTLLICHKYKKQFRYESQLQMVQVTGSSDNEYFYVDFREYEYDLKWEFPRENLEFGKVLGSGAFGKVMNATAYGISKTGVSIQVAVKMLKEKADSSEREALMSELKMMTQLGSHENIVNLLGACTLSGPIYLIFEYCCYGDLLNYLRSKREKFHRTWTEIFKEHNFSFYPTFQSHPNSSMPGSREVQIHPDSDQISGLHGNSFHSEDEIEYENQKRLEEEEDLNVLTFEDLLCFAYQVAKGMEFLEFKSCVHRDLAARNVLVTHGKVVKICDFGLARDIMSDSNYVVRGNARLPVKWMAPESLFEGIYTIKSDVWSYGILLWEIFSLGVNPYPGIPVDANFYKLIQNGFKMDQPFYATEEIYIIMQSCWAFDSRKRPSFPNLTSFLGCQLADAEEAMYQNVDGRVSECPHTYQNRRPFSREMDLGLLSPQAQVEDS
T1 sequence (P49841 whole entry): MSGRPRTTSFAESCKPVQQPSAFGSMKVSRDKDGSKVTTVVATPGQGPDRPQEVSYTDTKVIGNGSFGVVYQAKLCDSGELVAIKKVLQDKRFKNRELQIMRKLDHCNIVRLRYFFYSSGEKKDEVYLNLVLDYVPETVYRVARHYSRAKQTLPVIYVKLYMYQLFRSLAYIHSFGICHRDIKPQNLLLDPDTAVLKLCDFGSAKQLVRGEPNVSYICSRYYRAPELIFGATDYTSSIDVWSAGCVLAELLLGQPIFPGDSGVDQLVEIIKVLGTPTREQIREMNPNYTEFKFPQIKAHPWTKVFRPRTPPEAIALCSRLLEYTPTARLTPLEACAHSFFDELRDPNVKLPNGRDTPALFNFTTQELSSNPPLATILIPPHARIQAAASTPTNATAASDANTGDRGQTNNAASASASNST
T2 sequence (P23443 whole entry): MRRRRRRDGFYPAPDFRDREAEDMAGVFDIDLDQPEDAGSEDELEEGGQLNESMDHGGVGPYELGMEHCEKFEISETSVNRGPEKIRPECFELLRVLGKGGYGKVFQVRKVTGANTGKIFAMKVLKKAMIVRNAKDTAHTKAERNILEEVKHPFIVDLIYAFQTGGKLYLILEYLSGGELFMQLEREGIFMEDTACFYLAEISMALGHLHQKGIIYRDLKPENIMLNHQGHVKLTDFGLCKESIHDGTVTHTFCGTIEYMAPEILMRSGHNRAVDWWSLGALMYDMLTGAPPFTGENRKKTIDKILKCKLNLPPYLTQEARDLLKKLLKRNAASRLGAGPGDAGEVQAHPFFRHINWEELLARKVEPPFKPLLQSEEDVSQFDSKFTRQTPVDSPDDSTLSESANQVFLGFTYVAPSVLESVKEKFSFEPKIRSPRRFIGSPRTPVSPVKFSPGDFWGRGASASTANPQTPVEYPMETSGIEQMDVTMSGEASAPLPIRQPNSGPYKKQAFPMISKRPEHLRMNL

Nc1c2c(nc3ccccc13)CCCC2 [NCGC00015054-12]
0.1mMGluc_INS1E SecretionMod Act IC50/EC50 ([1]; assay number 9, 0.1 mM glucose): > 33.33 µM | 5mMGluc_INS1E SecretionMod IC50/EC50 ([2]; assay number 8, 5 mM glucose): 17.6112 µM

COC(=O)Nc1nc2ccc(Sc3ccccc3)cc2[nH]1 [NCGC00016855-10]
IC50/EC50, hGSK3b LANCE (assay number 34) [3]: > 20 µM | IC50/EC50, hp70S6K1 LANCE (assay number 31) [4]: > 20 µM | IC50/EC50, WntCondMedia_Alk Phos C2C12 (assay number 6) [5]: 0.4382 µM | IC50/EC50, Basal_Viability ATP SW480 (assay number 24) ([6]; basal): > 20 µM | IC50/EC50, WntCondMedia_bCatenin C2C12 (assay number 5) [7]: 4.8413 µM | IC50/EC50, VEGF_ADSC\ECFC Angio CD31 TubeArea (assay number 2) [8]: 0.2067 µM | IC50/EC50, hNCI-H716 GLP1 Secretion (assay number 12) [9]: > 40 µM | IC50/EC50, Basal_Viability ATP RKO (assay number 29) ([10]; basal): 0.001 µM | IC50/EC50, Basal_Viability ATP HCT116 (assay number 25) ([11]; basal): 0.001 µM | IC50/EC50, hKDR LANCE (assay number 32) [12]: > 20 µM | IC50/EC50, Hela CellCycMod PI 2N (assay number 14) ([13]; 2N): 0.2042 µM | IC50/EC50, Hela CellCycMod PI 4N (assay number 16) ([13]; 4N): 0.195 µM | IC50/EC50, Hela CellCycMod PI Cell Number (assay number 18) ([13]; Cell Number): 0.0097 µM | IC50/EC50, Hela CellCycMod PI MI (assay number 17) ([13]; MI): 0.2276 µM | IC50/EC50, Hela CellCycMod PI S Phase (assay number 15) ([13]; S Phase): > 10 µM | IC50/EC50, mSTC-1 GLP1 Secretion (assay number 13) [14]: > 20 µM | IC50/EC50, hJAK2 LANCE (assay number 33) [15]: > 20 µM | IC50/EC50, Basal_Viability ATP SNU-C1 (assay number 30) ([16]; basal): > 20 µM | IC50/EC50, VEGF_ADSC\ECFC Angio Hoechst NucArea (assay number 3) [17]: > 10 µM | IC50/EC50, Basal_Viability ATP DLD-1 (assay number 23) ([18]; basal): 0.06726 µM | IC50/EC50, hFLT3 LANCE (assay number 35) [19]: > 20 µM | IC50/EC50, GSK3b inh pretreated_Viability ATP HCT116 (assay number 26) ([20]; GSK3b inh pretreated): 0.003 µM | IC50/EC50, Basal_Viability ATP HT-29 (assay number 28) ([21]; basal): > 20 µM | IC50/EC50, Basal_Viability ATP Colo 320 (assay number 27) [22]: > 20 µM

Cc1c(C)n(Cc2ccccc2)c2ccc(C(=O)OCCN(C)C)cc12 [NCGC00160412-04]
Basal_Viability ATP SW480 IC50/EC50 [6]: 8.7786 µM | Basal_Viability ATP RKO IC50/EC50 [10]: 12.7694 µM | Basal_Viability ATP HCT116 IC50/EC50 [11]: 11.7611 µM | 0.1mMGluc_INS1E SecretionMod Act IC50/EC50 [1]: 14.9139 µM | Basal_Viability ATP SNU-C1 IC50/EC50 [16]: 11.9645 µM | Basal_Viability ATP DLD-1 IC50/EC50 [18]: 11.2721 µM | 5mMGluc_INS1E SecretionMod IC50/EC50 [2]: 3.845 µM | GSK3b inh pretreated_Viability ATP HCT116 IC50/EC50 [20]: 5.474 µM | Basal_Viability ATP HT-29 IC50/EC50 [21]: > 6.6667 µM

CC(C)(C)c1nnc(NS(=O)(=O)c2ccccc2)s1 [NCGC00182991-01]
0.1mMGluc_INS1E SecretionMod Act IC50/EC50 ([1]; assay number 9, 0.1 mM glucose): > 33.33 µM | 5mMGluc_INS1E SecretionMod IC50/EC50 ([2]; assay number 8, 5 mM glucose): 13.1318 µM

CC(C)(Cc1c[nH]c2ccccc12)NCC(O)COc1ccccc1C#N (stereo not drawn) [NCGC00167817-02]
0.1mMGluc_INS1E SecretionMod Act IC50/EC50 ([1]; assay number 9, 0.1 mM glucose): > 33.33 µM | 5mMGluc_INS1E SecretionMod IC50/EC50 ([2]; assay number 8, 5 mM glucose): 15.0119 µM

C#CCOC(C(=O)OCCN(C)C)(c1ccccc1)c1ccccc1 [NCGC00164558-02]
0.1mMGluc_INS1E SecretionMod Act IC50/EC50 ([1]; assay number 9, 0.1 mM glucose): 9.666 µM | 5mMGluc_INS1E SecretionMod IC50/EC50 ([2]; assay number 8, 5 mM glucose): 9.257 µM

CCN(CC)CCNC(C(=O)OCCC(C)C)c1ccccc1 (stereo not drawn) [NCGC00164526-02]
0.1mMGluc_INS1E SecretionMod Act IC50/EC50 ([1]; assay number 9, 0.1 mM glucose): > 33.33 µM | 5mMGluc_INS1E SecretionMod IC50/EC50 ([2]; assay number 8, 5 mM glucose): 24.7717 µM

CN(C)CCC[C@@]1(c2ccc(F)cc2)OCc2cc(C#N)ccc21.O=C(O)C(=O)O [NCGC00178555-02]
0.1mMGluc_INS1E SecretionMod Act IC50/EC50 ([1]; assay number 9, 0.1 mM glucose): > 33.33 µM | 5mMGluc_INS1E SecretionMod IC50/EC50 ([2]; assay number 8, 5 mM glucose): 5.447 µM

Cc1cc2c(OCC(CNC(C)(C)C)OC(=O)c3ccccc3)cccc2[nH]1 (stereo not drawn) [NCGC00263654-01]
0.1mMGluc_INS1E SecretionMod Act IC50/EC50 ([1]; assay number 9, 0.1 mM glucose): > 33.33 µM | 5mMGluc_INS1E SecretionMod IC50/EC50 ([2]; assay number 8, 5 mM glucose): 14.6026 µM

COc1cc(C(=O)OCCCN2CCCN(CCCOC(=O)c3cc(OC)c(OC)c(OC)c3)CC2)cc(OC)c1OC [NCGC00016747-07]
0.1mMGluc_INS1E SecretionMod Act IC50/EC50 ([1]; assay number 9, 0.1 mM glucose): 18.0188 µM | 5mMGluc_INS1E SecretionMod IC50/EC50 ([2]; assay number 8, 5 mM glucose): 10.1571 µM

Cl.N[C@@H]1C[C@H]1c1ccccc1 [NCGC00016598-02]
0.1mMGluc_INS1E SecretionMod Act IC50/EC50 ([1]; assay number 9, 0.1 mM glucose): > 33.33 µM | 5mMGluc_INS1E SecretionMod IC50/EC50 ([2]; assay number 8, 5 mM glucose): > 33.33 µM

Reference: PMC4503722, “Novel Phenotypic Outcomes Identified for a Public Collection of Approved Drugs from a Publicly Accessible Panel of Assays” (PLoS ONE, 2015)
